From patent US8592422B2, “Bicyclic triazole and pyrazole lactams as allosteric modulators of mGluR5 receptors” (Vanderbilt University, priority 2010, dated 2013)

molecular target: T1, human mGluR5a receptor (Homo sapiens, UniProt P41594); experiment: Cell-based functional Ca2+ mobilization assay (FDSS), potentiation of glutamate EC20 response; conditions: HEK cells transfected with human mGluR5 (H10H or H12H); in presence of EC20 glutamate
T1 construct: cDNA subcloned into pcDNA3.1(-)
Method: Human embryonic kidney (HEK) cells transfected with rat mGluR5 were plated in clear bottom assay plates for assay in a Functional Drug Screening System (FDSS). In the alternative assay, HEK cells transfected with human mGluR5 were plated for assay in the FDSS. In some cases the HEK cells transfected with human mGluR5 were the H10H cell line. Alternatively, the HEK cells transfected with human mGluR5 were the H12H cell line. […] The cells were loaded with a Ca^2+-sensitive fluorescent dye (e.g., Fluo-4), and the plates were washed and placed in the FDSS instrument. After establishment of a fluorescence baseline for twelve seconds, the compounds of the present invention were added to the cells, and the response in cells was measured. Alternatively, in various further aspects, after establishment of a fluorescence baseline for about three seconds, the compounds of the present invention were added to the cells, and the response in cells was measured. Five minutes later, an mGluR5 agonist (e.g., glutamate, 3,5-dihydroxyphenylglycine, or quisqualate) was added to the cells, and the response of the cells was measured.
The above described assay operated in two modes. In the first mode, a range of concentrations of the present compounds were added to cells, followed by a single fixed concentration of agonist. If a compound acted as a potentiator, an EC50 value for potentiation and a maximum extent of potentiation by the compound at this concentration of agonist was determined by non-linear curve fitting. In the second mode, several fixed concentrations of the present compounds were added to various wells on a plate, followed by a range of concentrations of agonist for each concentration of present compound; the EC50 values for the agonist at each concentration of compound were determined by non-linear curve fitting. A decrease in the EC50 value of the agonist with increasing concentrations of the present compounds (a leftward shift of the agonist concentration-response curve) is an indication of the degree of mGluR5 potentiation at a given concentration of the present compound. An increase in the EC50 value of the agonist with increasing concentrations of the present compounds (a rightward shift of the agonist concentration-response curve) is an indication of the degree of mGluR5 antagonism at a given concentration of the present compound. The second mode also indicates whether the present compounds also affect the maximum response to mGluR5 to agonists.
The mGluR5 activity was determined using the metabotropic glutamate receptor activity assays in human embryonic kidney cells as described herein, wherein the human embryonic kidney cells were transfected with human mGluR5. The compounds in Table 1 were synthesized with methods identical or analogous to those shown herein. The requisite starting materials were commercially available, described in the literature, or readily synthesized by one skilled in the art of organic synthesis. The compound number given in Table I corresponds to the compound number in Table II and the structure given therein.
Human mGluR5a cDNA in pCMV6-XL6 mammalian expression plasmid was purchased from OriGene Technologies, Inc. (catalogue number SC326357) and subcloned into pcDNA3.1(−). Human embryonic kidney (HEK) 293A cells were then transfected with human mGluR5a pcDNA3.1(−) using LipofectAmine-2000 (Invitrogen) and monoclones were selected and tested for functional response using a Ca^2+ mobilization assay. Monoclones were named for the species (“H” for human) plus the location on the plate (e.g. “10H”).
HEK cells transfected with the human mGluR5a receptor (H10H or H12H cell line) were plated at 15,000 cells/well in clear-bottomed poly-D-lysine-coated assay plates (BD Falcon) in glutamate-glutamine-free growth medium and incubated overnight at 37° C. and 5% CO2.

T1 sequence (P41594 21-1180 isoform P41594-2 limits assumed): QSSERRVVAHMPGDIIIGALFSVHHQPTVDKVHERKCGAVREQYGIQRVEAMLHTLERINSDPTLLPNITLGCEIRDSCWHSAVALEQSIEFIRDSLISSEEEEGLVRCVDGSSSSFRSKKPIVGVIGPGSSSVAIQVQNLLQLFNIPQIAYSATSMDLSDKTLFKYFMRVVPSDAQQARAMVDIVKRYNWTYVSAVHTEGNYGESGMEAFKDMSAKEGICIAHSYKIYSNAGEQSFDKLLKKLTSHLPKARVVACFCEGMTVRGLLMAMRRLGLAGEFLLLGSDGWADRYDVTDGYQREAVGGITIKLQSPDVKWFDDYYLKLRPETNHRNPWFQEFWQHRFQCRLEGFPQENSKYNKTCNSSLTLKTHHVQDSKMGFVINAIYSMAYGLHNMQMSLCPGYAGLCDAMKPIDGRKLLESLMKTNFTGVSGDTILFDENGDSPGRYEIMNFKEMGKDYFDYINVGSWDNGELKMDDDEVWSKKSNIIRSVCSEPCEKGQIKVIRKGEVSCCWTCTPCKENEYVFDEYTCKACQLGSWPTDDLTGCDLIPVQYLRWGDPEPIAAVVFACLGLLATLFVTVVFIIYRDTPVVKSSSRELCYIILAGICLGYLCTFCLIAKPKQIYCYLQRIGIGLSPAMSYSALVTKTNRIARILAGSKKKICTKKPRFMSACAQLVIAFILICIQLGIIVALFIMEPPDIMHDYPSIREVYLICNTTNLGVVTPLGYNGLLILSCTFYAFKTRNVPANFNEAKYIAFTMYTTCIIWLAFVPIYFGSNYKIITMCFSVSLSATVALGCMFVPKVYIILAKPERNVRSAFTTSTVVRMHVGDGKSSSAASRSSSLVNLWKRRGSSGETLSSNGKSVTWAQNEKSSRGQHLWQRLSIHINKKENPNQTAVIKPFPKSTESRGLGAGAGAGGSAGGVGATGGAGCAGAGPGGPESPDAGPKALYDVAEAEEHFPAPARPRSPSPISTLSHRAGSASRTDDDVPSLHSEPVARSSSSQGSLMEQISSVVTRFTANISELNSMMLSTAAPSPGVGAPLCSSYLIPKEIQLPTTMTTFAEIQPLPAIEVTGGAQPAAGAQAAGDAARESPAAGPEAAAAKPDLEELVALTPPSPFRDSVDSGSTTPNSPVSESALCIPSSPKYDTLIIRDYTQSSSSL

Structure (SMILES)	pEC50
Cc1cccc(OCc2cc3n(n2)CCN(CC2CC2)C3=O)c1 [Example 168]	5.18
O=C1c2cc(COc3cccnc3)nn2CCN1CC1CC1 [Example 170]	<5.00
Cc1cccc(OCc2cc3n(n2)CCN(c2ccc(F)cc2)C3=O)n1 [Example 173]	<5.00
O=C1c2cc(COc3ccncc3)nn2CCN1c1ccc(F)cn1 [Example 176]	5.75
Cc1nccc(OCc2cc3n(n2)CCN(c2ccc(F)cc2)C3=O)n1 [Example 182]	5.49
Cc1ccnc(OCc2cc3n(n2)CCN(c2ccc(F)cc2)C3=O)n1 [Example 186]	<4.52
Cc1cc(OCc2cc3n(n2)CCN(c2ccc(F)cc2)C3=O)ncn1 [Example 196]	<5.00
Cc1ccnc(OCc2cc3n(n2)CCN(c2ccc(F)cc2)C3=O)c1F [Example 198]	5.76
O=C1c2cc(COc3ccncn3)nn2CCN1c1ccc(F)cc1 [Example 199]	5.43
O=C1c2cc(COc3ccnnc3)nn2CCN1c1ccc(F)cc1 [Example 201]	<5.00

More lines, now with the values ahead:

pEC50	Structure (SMILES)
6.51	N#Cc1cccc(OCc2cc3n(n2)CCN(c2ccc(F)cc2)C3=O)c1 [Example 169]
5.99	O=C1c2cc(COc3ccccn3)nn2CCN1c1ccc(F)cn1 [Example 172]
6.42	Cc1cccc(OCc2cc3n(n2)CCN(c2ccc(F)cn2)C3=O)c1 [Example 177]
5.77	Cc1cc(OCc2cc3n(n2)CCN(c2ccc(F)cc2)C3=O)ncc1F [Example 180]
6.45	Cc1ccnc(OCc2cc3n(n2)CCN(c2ccc(F)cc2)C3=O)c1 [Example 184]
6.83	O=C1c2cc(COc3cccc(F)c3)nn2CCN1c1ccc(F)cc1 [Example 188]
6.78	Cc1cc(N2CCn3nc(COc4ccccn4)cc3C2=O)ccc1F [Example 203]
6.41	Cc1nc(N2CCn3nc(COc4ccccn4)cc3C2=O)ccc1F [Example 205]
6.36	CC(C)c1cccc(N2CCn3nc(COc4ccccn4)cc3C2=O)n1 [Example 207]
6.46	COc1ccc(F)c(N2CCn3nc(COc4ccccn4)cc3C2=O)n1 [Example 208]
5.97	COc1ccccc1N1CCn2nc(COc3ccccn3)cc2C1=O [Example 214]
6.39	Cc1cccc(N2CCn3nc(COc4ccccn4)cc3C2=O)c1 [Example 216]
6.59	Cc1ccccc1N1CCn2nc(COc3ccccn3)cc2C1=O [Example 219]
7.11	Cc1ccc(N2CCn3nc(COc4ccc(F)cc4)cc3C2=O)cc1 [Example 222]

same assay, conditions: HEK cells transfected with human mGluR5 (H10H or H12H); in presence of EC20 glutamate; read-out: EC50

Structure (SMILES)	EC50
Cc1cccc(OCc2cc3n(n2)CCN(CC2CC2)C3=O)c1 [Example 168]	6610 nM
O=C1c2cc(COc3cccnc3)nn2CCN1CC1CC1 [Example 170]	> 10000 nM
Cc1cccc(OCc2cc3n(n2)CCN(c2ccc(F)cc2)C3=O)n1 [Example 173]	> 10000 nM
O=C1c2cc(COc3ccncc3)nn2CCN1c1ccc(F)cn1 [Example 176]	1780 nM
Cc1nccc(OCc2cc3n(n2)CCN(c2ccc(F)cc2)C3=O)n1 [Example 182]	3240 nM
Cc1ccnc(OCc2cc3n(n2)CCN(c2ccc(F)cc2)C3=O)n1 [Example 186]	> 30200 nM
Cc1cc(OCc2cc3n(n2)CCN(c2ccc(F)cc2)C3=O)ncn1 [Example 196]	> 10000 nM
Cc1ccnc(OCc2cc3n(n2)CCN(c2ccc(F)cc2)C3=O)c1F [Example 198]	1740 nM
O=C1c2cc(COc3ccncn3)nn2CCN1c1ccc(F)cc1 [Example 199]	3720 nM
O=C1c2cc(COc3ccnnc3)nn2CCN1c1ccc(F)cc1 [Example 201]	> 10000 nM

The next lines start with the values.

EC50	Structure (SMILES)
309 nM	N#Cc1cccc(OCc2cc3n(n2)CCN(c2ccc(F)cc2)C3=O)c1 [Example 169]
1020 nM	O=C1c2cc(COc3ccccn3)nn2CCN1c1ccc(F)cn1 [Example 172]
380 nM	Cc1cccc(OCc2cc3n(n2)CCN(c2ccc(F)cn2)C3=O)c1 [Example 177]
1700 nM	Cc1cc(OCc2cc3n(n2)CCN(c2ccc(F)cc2)C3=O)ncc1F [Example 180]
355 nM	Cc1ccnc(OCc2cc3n(n2)CCN(c2ccc(F)cc2)C3=O)c1 [Example 184]
148 nM	O=C1c2cc(COc3cccc(F)c3)nn2CCN1c1ccc(F)cc1 [Example 188]
166 nM	Cc1cc(N2CCn3nc(COc4ccccn4)cc3C2=O)ccc1F [Example 203]
389 nM	Cc1nc(N2CCn3nc(COc4ccccn4)cc3C2=O)ccc1F [Example 205]
437 nM	CC(C)c1cccc(N2CCn3nc(COc4ccccn4)cc3C2=O)n1 [Example 207]
347 nM	COc1ccc(F)c(N2CCn3nc(COc4ccccn4)cc3C2=O)n1 [Example 208]
1100 nM	COc1ccccc1N1CCn2nc(COc3ccccn3)cc2C1=O [Example 214]
410 nM	Cc1cccc(N2CCn3nc(COc4ccccn4)cc3C2=O)c1 [Example 216]
260 nM	Cc1ccccc1N1CCn2nc(COc3ccccn3)cc2C1=O [Example 219]
76 nM	Cc1ccc(N2CCn3nc(COc4ccc(F)cc4)cc3C2=O)cc1 [Example 222]

same assay, conditions: maximum % effect in concentration-response curve, as percent of response to maximally effective glutamate

Structure (SMILES)	Emax (%)
Cc1cccc(OCc2cc3n(n2)CCN(CC2CC2)C3=O)c1 [Example 168]	30%
O=C1c2cc(COc3cccnc3)nn2CCN1CC1CC1 [Example 170]	45%
Cc1cccc(OCc2cc3n(n2)CCN(c2ccc(F)cc2)C3=O)n1 [Example 173]	31%
O=C1c2cc(COc3ccncc3)nn2CCN1c1ccc(F)cn1 [Example 176]	64%
Cc1nccc(OCc2cc3n(n2)CCN(c2ccc(F)cc2)C3=O)n1 [Example 182]	36%
Cc1ccnc(OCc2cc3n(n2)CCN(c2ccc(F)cc2)C3=O)n1 [Example 186]	30%
Cc1cc(OCc2cc3n(n2)CCN(c2ccc(F)cc2)C3=O)ncn1 [Example 196]	37%
Cc1ccnc(OCc2cc3n(n2)CCN(c2ccc(F)cc2)C3=O)c1F [Example 198]	61%
O=C1c2cc(COc3ccncn3)nn2CCN1c1ccc(F)cc1 [Example 199]	60%
O=C1c2cc(COc3ccnnc3)nn2CCN1c1ccc(F)cc1 [Example 201]	46%

Results, then the compound that gave them:

Emax (%)	Structure (SMILES)
62%	N#Cc1cccc(OCc2cc3n(n2)CCN(c2ccc(F)cc2)C3=O)c1 [Example 169]
64%	O=C1c2cc(COc3ccccn3)nn2CCN1c1ccc(F)cn1 [Example 172]
61%	Cc1cccc(OCc2cc3n(n2)CCN(c2ccc(F)cn2)C3=O)c1 [Example 177]
53%	Cc1cc(OCc2cc3n(n2)CCN(c2ccc(F)cc2)C3=O)ncc1F [Example 180]
61%	Cc1ccnc(OCc2cc3n(n2)CCN(c2ccc(F)cc2)C3=O)c1 [Example 184]
66%	O=C1c2cc(COc3cccc(F)c3)nn2CCN1c1ccc(F)cc1 [Example 188]
66%	Cc1cc(N2CCn3nc(COc4ccccn4)cc3C2=O)ccc1F [Example 203]
55%	Cc1nc(N2CCn3nc(COc4ccccn4)cc3C2=O)ccc1F [Example 205]
69%	CC(C)c1cccc(N2CCn3nc(COc4ccccn4)cc3C2=O)n1 [Example 207]
69%	COc1ccc(F)c(N2CCn3nc(COc4ccccn4)cc3C2=O)n1 [Example 208]
54%	COc1ccccc1N1CCn2nc(COc3ccccn3)cc2C1=O [Example 214]
63%	Cc1cccc(N2CCn3nc(COc4ccccn4)cc3C2=O)c1 [Example 216]
67%	Cc1ccccc1N1CCn2nc(COc3ccccn3)cc2C1=O [Example 219]
64%	Cc1ccc(N2CCn3nc(COc4ccc(F)cc4)cc3C2=O)cc1 [Example 222]
